Experimental data as given in patent publication US10227357B2, “Compounds and methods for kinase modulation, and indications therefor” (Plexxikon Inc., priority 2012, dated 2019).

Biological target: T1, c-kit mutant D816V (Homo sapiens, UniProt P10721, D816V/DEL694-753)
T1 construct: residues 551-934, kinase insertion domain residues 694-753 deleted; 6x-histidine (N); made in house; host or cells: E. coli Arctic Express (DE3) RIL (Stratagene)
Test: c-Kit mutant D816V biochemical assay, AlphaScreen
Settings: c-kit D816V biochemical inhibitory activity; read-out: Biochemical activity (IC50 μM) Kit D816V
Procedure: Compounds to be tested were dissolved in DMSO to a concentration of 20 mM. These were diluted 30 μl into 120 μl of DMSO (4 mM) and 1 μl was added to an assay plate. These were then serially diluted 1:3 (50 μl to 100 μl DMSO) for a total of 8 points. Plates were prepared such that each kinase reaction is 20 μl in 1× kinase buffer (25 mM HEPES, pH 7.2, 8 mM MgCl2, 2 mM MnCl2, 50 mM NaCl, 0.01% Brij, 1 mM DTT, 0.01% BSA), 5% DMSO and 10 μM ATP. […] After incubation of the kinase reaction for 30 minutes at room temperature, 5 μl of donor beads (Streptavidin coated beads (Perkin Elmer Life Science) final concentration 7.5 μg/ml) in stop buffer (25 mM Hepes pH 7.5, 100 mM EDTA, 0.01% BSA) was added, the sample was mixed and incubated for 20 minutes at room temperature before adding 5 μl of acceptor beads (PY20 coated beads (Perkin Elmer Life Science) final concentration 7.5 μg/ml) in stop buffer. The samples were incubated for 60 minutes at room temperature and the signal per well was read on EnVision reader. […] The signal vs. compound concentration was used to determine the IC50.
Cells were grown in Terrific Broth (TB) media to an OD600 of 0.6 at 37° C. at which temperature was reduced to 10° C., protein was induced with 1.0 mM IPTG for 18 hours and harvested by centrifugation at 8000×g for 20 minutes. Cells were re-suspended in 0.1M KPO4 pH 8.0, 250 mM NaCl, 10% Glycerol, 0.75% NP-40, 25 mM Imidazole, 5 mM BME with 0.2 mg/ml Lysosyme, 2.0 mM PMSF, 25 μg/ml DNAse I, incubated in ice for 30 minutes and lysed with a cell disruptor (MicroFluidics). The lysate was clarified by centrifugation at 20,000×g for 2 hours. The protein was captured with Talon resin (Clontech). Contaminating proteins were washed off with 25 mM Tris-HCl pH 8.3, 250 mM NaCl, 15% Glycerol, 1% Triton X-100, and protein eluted using 100 mM EDTA. The protein was further purified using Gel Filtration column 26/600 Superdex 200 (GE) in 50 mM Tris-HCl, pH 8.0, 250 mM NaCl, 15% Glycerol, 5 mM BME. The protein was aliquoted and flash-frozen in liquid Nitrogen.

T1 sequence (P10721 with tags, fused parts or gaps DEL694-753/D816V): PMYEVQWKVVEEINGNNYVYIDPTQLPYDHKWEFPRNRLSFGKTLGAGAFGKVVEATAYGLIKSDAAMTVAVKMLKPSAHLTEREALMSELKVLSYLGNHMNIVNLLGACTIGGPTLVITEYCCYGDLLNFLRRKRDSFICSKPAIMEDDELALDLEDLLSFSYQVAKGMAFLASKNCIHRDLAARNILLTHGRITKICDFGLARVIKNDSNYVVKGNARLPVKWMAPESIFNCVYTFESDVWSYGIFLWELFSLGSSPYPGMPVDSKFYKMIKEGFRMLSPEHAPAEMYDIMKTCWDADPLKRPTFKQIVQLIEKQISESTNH

Row | Compound | IC50 [µM]
1 | Cc1ccccc1C(=O)c1c[nH]c2ncnc(N3CCN(C(=O)NCc4ccc(F)cc4)CC3)c12 [P-0160, N-[(4-fluorophenyl)methyl]-4-[5-(2-methylbenzoyl)-7H-pyrrolo[2,3-d]pyrimidin-4-yl]piperazine-1-carboxamide] | 1 to 10
2 | Cc1ccc(S(=O)(=O)Nc2cccc(-c3ncnc4[nH]c(-c5ccc(F)cc5)cc34)c2)cc1 [P-0435, N-[3-[6-(4-fluorophenyl)-7H-pyrrolo[2,3-d]pyrimidin-4-yl]phenyl]-4-methyl-benzenesulfonamide] | 10 to 200
3 | COc1cccc([C@H](C)NC(=O)N2CCN(c3ncnc4[nH]c(-c5ccc(C#N)cc5)cc34)CC2)c1 [P-0069, 4-[6-(4-cyanophenyl)-7H-pyrrolo[2,3-d]pyrimidin-4-yl]-N-[(1S)-1-(3-methoxyphenyl)ethyl]piperazine-1-carboxamide] | 0.0001 to 1
4 | O=C(NC(=O)N1CCN(c2ncnc3[nH]ccc23)CC1)c1ccccc1 [P-0174, N-benzoyl-4-(7H-pyrrolo[2,3-d]pyrimidin-4-yl)piperazine-1-carboxamide] | 10 to 200
5 | CC[C@H](NC(=O)N1CCN(c2ncnc3[nH]c(-c4ccncc4)cc23)C[C@H]1C)c1ccccc1 [P-0054, (2R)-2-methyl-N-[(1S)-1-phenylpropyl]-4-[6-(4-pyridyl)-7H-pyrrolo[2,3-d]pyrimidin-4-yl]piperazine-1-carboxamide] | 0.0001 to 1
6 | O=S(=O)(Nc1ccc(F)cc1)c1ccc(-c2ncnc3[nH]c(-c4ccc(F)cc4)cc23)cc1 [P-0428, N-(4-fluorophenyl)-4-[6-(4-fluorophenyl)-7H-pyrrolo[2,3-d]pyrimidin-4-yl]benzenesulfonamide] | 0.0001 to 1
7 | Cn1cc(-c2cc3c(N4CCC(NS(=O)(=O)c5ccccc5OC(F)(F)F)CC4)ncnc3[nH]2)cn1 [P-0493, N-[1-[6-(1-methylpyrazol-4-yl)-7H-pyrrolo[2,3-d]pyrimidin-4-yl]-4-piperidyl]-2-(trifluoromethoxy)benzenesulfonamide] | 10 to 200
8 | COc1ccc(S(=O)(=O)Nc2ccc(-c3ncnc4cc(OC)c(OC)cc34)cc2F)cc1 [P-0273, N-[4-(6,7-dimethoxyquinazolin-4-yl)-2-fluoro-phenyl]-4-methoxy-benzenesulfonamide] | 0.0001 to 1
9 | Nc1ccc(-c2ncnc3cc(-c4ccc(F)cc4)sc23)cc1 [P-0634, 4-[6-(4-fluorophenyl)thieno[3,2-d]pyrimidin-4-yl]aniline] | 1 to 10
10 | COc1cccc(NC(=O)N2CCN(c3ncnc4[nH]c(-c5cccnc5)cc34)CC2)c1 [P-0231, N-(3-methoxyphenyl)-4-[6-(3-pyridyl)-7H-pyrrolo[2,3-d]pyrimidin-4-yl]piperazine-1-carboxamide] | 1 to 10
11 | O=C(NC(=O)N1CCN(c2ncnc3[nH]c(-c4ccc(F)cc4)cc23)CC1)c1ccccc1 [P-0143, N-benzoyl-4-[6-(4-fluorophenyl)-7H-pyrrolo[2,3-d]pyrimidin-4-yl]piperazine-1-carboxamide] | 1 to 10
12 | Cc1ccc(NC(=O)N2CCN(c3ncnc4[nH]c(-c5ccncc5)cc34)C[C@@H]2C)cn1 [P-0039, (2S)-2-methyl-N-(6-methyl-3-pyridyl)-4-[6-(4-pyridyl)-7H-pyrrolo[2,3-d]pyrimidin-4-yl]piperazine-1-carboxamide] | 1 to 10
13 | Cc1cc2c(-c3ccc(NS(=O)(=O)c4ccc(C(F)(F)F)cn4)cc3)ncnc2[nH]1 [P-0312, N-[4-(6-methyl-7H-pyrrolo[2,3-d]pyrimidin-4-yl)phenyl]-5-(trifluoromethyl)pyridine-2-sulfonamide] | 1 to 10
14 | O=C(Nc1ccc(F)cc1)N1CC2CCC1CN2c1ncnc2cc(-c3ccc(F)cc3)sc12 (stereo not drawn) [P-0546, N-(4-fluorophenyl)-5-[6-(4-fluorophenyl)thieno[3,2-d]pyrimidin-4-yl]-2,5-diazabicyclo[2.2.2]octane-2-carboxamide] | 1 to 10
15 | Cc1cc2c(N3CCC(NS(=O)(=O)c4ccc(C(C)C)cc4)CC3)ncnc2[nH]1 [P-0657, 4-isopropyl-N-[1-(6-methyl-7H-pyrrolo[2,3-d]pyrimidin-4-yl)-4-piperidyl]benzenesulfonamide] | 10 to 200
16 | COc1cccc([C@H](C)NC(=O)N2CC3CCC(C2)N3c2ncnc3cc(-c4ccc(F)cc4)sc23)c1 [P-0550, 8-[6-(4-fluorophenyl)thieno[3,2-d]pyrimidin-4-yl]-N-[(1S)-1-(3-methoxyphenyl)ethyl]-3,8-diazabicyclo[3.2.1]octane-3-carboxamide] | 1 to 10
17 | C[C@H](NC(=O)N1CCN(c2ncnc3[nH]c(-c4ccncc4)cc23)C[C@@H]1C)c1ccc(F)cc1 [P-0049, (2S)-N-[(1S)-1-(4-fluorophenyl)ethyl]-2-methyl-4-[6-(4-pyridyl)-7H-pyrrolo[2,3-d]pyrimidin-4-yl]piperazine-1-carboxamide] | 0.0001 to 1
18 | O=C(NCc1ccc(F)cc1)N1CCN(c2ncnc3[nH]cc(C4CC4)c23)CC1 [P-0179, 4-(5-cyclopropyl-7H-pyrrolo[2,3-d]pyrimidin-4-yl)-N-[(4-fluorophenyl)methyl]piperazine-1-carboxamide] | 1 to 10
19 | COc1cc2ncnc(-c3ccc(NS(C)(=O)=O)c(F)c3)c2cc1OC [P-0272, N-[4-(6,7-dimethoxyquinazolin-4-yl)-2-fluoro-phenyl]methanesulfonamide] | 0.0001 to 1
20 | O=C(NCCc1ccc(F)cc1)N1CCN(c2ncnc3[nH]ccc23)CC1 [P-0164, N-[2-(4-fluorophenyl)ethyl]-4-(7H-pyrrolo[2,3-d]pyrimidin-4-yl)piperazine-1-carboxamide] | 10 to 200
21 | Cc1ccc(S(=O)(=O)Nc2ccc(-c3ncnc4cc(-c5ccc(F)cc5)sc34)cc2)cc1 [P-0636, N-[4-[6-(4-fluorophenyl)thieno[3,2-d]pyrimidin-4-yl]phenyl]-4-methyl-benzenesulfonamide] | 0.0001 to 1
22 | Cn1cc(-c2cc3c(N4CCC(NS(=O)(=O)c5ccc(OC(F)(F)F)cc5)CC4)ncnc3[nH]2)cn1 [P-0497, N-[1-[6-(1-methylpyrazol-4-yl)-7H-pyrrolo[2,3-d]pyrimidin-4-yl]-4-piperidyl]-4-(trifluoromethoxy)benzenesulfonamide] | 1 to 10
23 | COc1cc(-c2cc3c(N4CCN(C(=O)N[C@@H](C)c5cccc(Cl)c5)[C@H](C)C4)ncnc3[nH]2)ccn1 [P-0711, (2R)-N-[(1S)-1-(3-chlorophenyl)ethyl]-4-[6-(2-methoxy-4-pyridyl)-7H-pyrrolo[2,3-d]pyrimidin-4-yl]-2-methyl-piperazine-1-carboxamide] | 0.0001 to 1
24 | CCNC(=O)N1CCN(c2ncnc3[nH]c(-c4ccc(F)cc4)cc23)CC1 [P-0088, N-ethyl-4-[6-(4-fluorophenyl)-7H-pyrrolo[2,3-d]pyrimidin-4-yl]piperazine-1-carboxamide] | 1 to 10
25 | Cc1ccc(C(C)NC(=O)N2CCN(c3ncnc4cc(-c5ccc(F)cc5)sc34)CC2)s1 (stereo not drawn) [P-0703, 4-[6-(4-fluorophenyl)thieno[3,2-d]pyrimidin-4-yl]-N-[1-(5-methyl-2-thienyl)ethyl]piperazine-1-carboxamide] | 0.0001 to 1
26 | C[C@H](NC(=O)N1CCN(c2ncnc3cc(-c4ccc(F)cc4)sc23)CC1(C)C)c1cccc(F)c1 [P-0578, N-[(1S)-1-(3-fluorophenyl)ethyl]-4-[6-(4-fluorophenyl)thieno[3,2-d]pyrimidin-4-yl]-2,2-dimethyl-piperazine-1-carboxamide] | 1 to 10
27 | O=C(NCc1ccccc1)N1CCN(c2ncnc3cc(Br)sc23)CC1 [P-0629, N-benzyl-4-(6-bromothieno[3,2-d]pyrimidin-4-yl)piperazine-1-carboxamide] | 10 to 200
28 | Cn1cc(-c2cc3c(N4CCC(NS(=O)(=O)c5ccc(N6CCCC6=O)cc5)CC4)ncnc3[nH]2)cn1 [P-0483, N-[1-[6-(1-methylpyrazol-4-yl)-7H-pyrrolo[2,3-d]pyrimidin-4-yl]-4-piperidyl]-4-(2-oxopyrrolidin-1-yl)benzenesulfonamide] | 0.0001 to 1
29 | CCCc1ccc(S(=O)(=O)NC2CCN(c3ncnc4[nH]c(C)cc34)CC2)cc1 [P-0658, N-[1-(6-methyl-7H-pyrrolo[2,3-d]pyrimidin-4-yl)-4-piperidyl]-4-propyl-benzenesulfonamide] | 1 to 10
30 | CN(C)S(=O)(=O)NC1CCN(c2ncnc3[nH]c(-c4cnn(C)c4)cc23)CC1 [P-0469, 4-[4-(dimethylsulfamoylamino)-1-piperidyl]-6-(1-methylpyrazol-4-yl)-7H-pyrrolo[2,3-d]pyrimidine] | 0.0001 to 1
